Measurements reported in PubChem BioAssay (NCI).
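These data come from cells grown in 96-well plates and exposed to compound for 48 hours at five concentrations. TGI is the concentration that stops growth completely.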

Tests used:
Assay in all cases: NCI tumour cell line growth inhibition, 48 h
MOLT-4 leukemia = system: MOLT-4 leukemia
LXFL 529 NSCLC = system: LXFL 529 NSCLC
OVCAR-8 ovarian = system: OVCAR-8 ovarian
SF-539 CNS = system: SF-539 CNS
SK-MEL-5 melanoma = system: SK-MEL-5 melanoma
SNB-78 CNS = system: SNB-78 CNS
UO-31 renal = system: UO-31 renal
NCI-H23 lung = system: NCI-H23 lung
HOP-62 NSCLC = system: HOP-62 NSCLC
SK-OV-3 ovarian = system: SK-OV-3 ovarian
SK-MEL-2 melanoma = system: SK-MEL-2 melanoma
CAKI-1 renal = system: CAKI-1 renal
XF 498 CNS = system: XF 498 CNS
UACC-257 melanoma = system: UACC-257 melanoma
HOP-18 NSCLC = system: HOP-18 NSCLC
SN12C renal = system: SN12C renal
HT29 colon = system: HT29 colon
U251 CNS = system: U251 CNS
NCI-H460 lung = system: NCI-H460 lung
SK-MEL-28 melanoma = system: SK-MEL-28 melanoma
SF-268 CNS = system: SF-268 CNS
CCRF-CEM leukemia = system: CCRF-CEM leukemia
DMS 114 small cell lung = system: DMS 114 small cell lung
RXF 393 renal = system: RXF 393 renal
COLO 205 colon = system: COLO 205 colon
UACC-62 melanoma = system: UACC-62 melanoma
SF-295 CNS = system: SF-295 CNS
KM20L2 colon = system: KM20L2 colon
DMS 273 small cell lung = system: DMS 273 small cell lung
SNB-19 CNS = system: SNB-19 CNS
DLD-1 colon = system: DLD-1 colon
M14 melanoma = system: M14 melanoma
MALME-3M melanoma = system: MALME-3M melanoma
NCI-H226 lung = system: NCI-H226 lung
OVCAR-5 ovarian = system: OVCAR-5 ovarian
RPMI-8226 leukemia = system: RPMI-8226 leukemia
KM12 colon = system: KM12 colon
HL-60(TB) leukemia = system: HL-60(TB) leukemia
SR leukemia = system: SR leukemia
NCI-H522 lung = system: NCI-H522 lung
TK-10 renal = system: TK-10 renal
OVCAR-3 ovarian = system: OVCAR-3 ovarian
EKVX NSCLC = system: EKVX NSCLC
K-562 leukemia = system: K-562 leukemia
IGROV1 ovarian = system: IGROV1 ovarian
M19-MEL melanoma = system: M19-MEL melanoma
A498 renal = system: A498 renal
SW-620 colon = system: SW-620 colon
HOP-92 NSCLC = system: HOP-92 NSCLC
LOX IMVI melanoma = system: LOX IMVI melanoma
SNB-75 CNS = system: SNB-75 CNS
HCT-15 colon = system: HCT-15 colon
786-0 renal = system: 786-0 renal
ACHN renal = system: ACHN renal
OVCAR-4 ovarian = system: OVCAR-4 ovarian
HCC-2998 colon = system: HCC-2998 colon
A549 NSCLC = system: A549 NSCLC
HCT-116 colon = system: HCT-116 colon
RXF-631 renal = system: RXF-631 renal

Measured: TGI

O=C1NC2OC(CO)C(O)C(O1)C2O (stereo unspecified)
not listed: HCC-2998 colon | A549 NSCLC | HCT-116 colon | RXF-631 renal
> 100 µM: all other assays above

COC1(OC)CCCCC2c3cccc(OC(C)=O)c3C21OC(C)=O (stereo unspecified)
not listed: CAKI-1 renal | U251 CNS | NCI-H460 lung | RXF 393 renal | KM20L2 colon | A498 renal | HOP-92 NSCLC | RXF-631 renal
> 100 µM: all other assays above

O=C1C(Cl)N(c2ccccc2[N+](=O)[O-])C1c1c[nH]c2ccccc12 (stereo unspecified)
54.8 µM: OVCAR-5 ovarian
not listed: SNB-78 CNS | CAKI-1 renal | HOP-18 NSCLC | DMS 273 small cell lung | DLD-1 colon | NCI-H226 lung | A498 renal | LOX IMVI melanoma | HCT-15 colon | 786-0 renal | ACHN renal | HCC-2998 colon | RXF-631 renal
> 100 µM: all other assays above

O=C(Nc1cccc(O)c1)C(=O)C(C(=O)c1ccccc1F)C1OC(=O)c2ccccc21 (stereo unspecified)
93.5 µM: RXF-631 renal
49.1 µM: NCI-H226 lung
83.7 µM: SR leukemia
39.8 µM: RXF 393 renal
74.7 µM: SF-268 CNS
88.8 µM: LXFL 529 NSCLC
87.8 µM: RPMI-8226 leukemia
94.9 µM: NCI-H460 lung
58.9 µM: KM20L2 colon
26.9 µM: U251 CNS
88.2 µM: NCI-H23 lung
30.5 µM: OVCAR-8 ovarian
96.8 µM: UO-31 renal
68.5 µM: CCRF-CEM leukemia
47.1 µM: LOX IMVI melanoma
92.9 µM: SNB-78 CNS | SK-MEL-28 melanoma
63.9 µM: NCI-H522 lung
71 µM: KM12 colon
40.7 µM: DMS 114 small cell lung
39.4 µM: HCC-2998 colon
54.4 µM: M19-MEL melanoma
87.7 µM: HL-60(TB) leukemia
94 µM: CAKI-1 renal
68 µM: SNB-19 CNS
37.8 µM: UACC-62 melanoma
49.2 µM: HCT-15 colon
33.9 µM: HCT-116 colon
40.2 µM: SF-539 CNS
62.2 µM: SK-MEL-2 melanoma
98.1 µM: DMS 273 small cell lung
48.3 µM: COLO 205 colon
53.1 µM: SNB-75 CNS
not listed: XF 498 CNS | HOP-18 NSCLC | MALME-3M melanoma | OVCAR-3 ovarian | 786-0 renal
> 100 µM: all other assays above
